According to patent EP1234575A1, “Furan fatty acids for improving the efficiency of cytostatic and/or radiation therapy” (Deigner, Hans-Peter, Dr., priority 2001, dated 2002):

Legend:
[1] = tested on: Nierenkarzinomzelllinie (RENCA); assay: Apoptosis in RENCA renal carcinoma cells: FFS alone or 2 h FFS pre-incubation followed by a cytostatic (YO-PRO-1 positive cells, DNA laddering); assay type: cell-based; details: for Zahl apoptotischer Zellen bei 50 nM relativ zu 100 nM: 50 nM FFS versus 100 nM FFS, plus Daunorubicin; for Zahl apoptotischer Zellen bei 50 nM relativ zu 100 nM / höhere Anzahl apoptotischer Zellen im Vergleich zur Kontrolle mit Daunorubicin alleine / Konzentrationsabhängigkeit des prozentualen Anteils apoptotischer Zellen: Renca-Zellen; for höhere Anzahl apoptotischer Zellen im Vergleich zur Kontrolle mit Daunorubicin alleine: 1000 nM FFS plus Daunorubicin (1 µM per Figur 3); for Konzentrationsabhängigkeit des prozentualen Anteils apoptotischer Zellen: FFS 0 to 1000 nM plus Daunorubicin
From the text: (§1) Untersuchungen der pro- bzw. antiapoptotischen Wirkung der FFS wurden an einer Nierenkarzinomzelllinie (RENCA; Murphy et al., J. Natl. Cancer Inst. 50: 1013, 1973) durchgeführt. Dazu wurden die Zellen 22 Stunden zum einen mit einem Zytostatikum, zum anderen mit der entsprechenden FFS sowie einer Kontrolle und einer Kombination aus FFS und Zytostatikum inkubiert. Für die Substanzkombination aus FFS und Zytostatikum wurden die Zellen zwei Stunden mit der jeweiligen FFS vorinkubiert, anschließend das Zytostatikum zugegeben und danach für 24 Stunden im Brutschrank inkubiert. Die verwendeten Konzentrationen sind in Figur 3 angegeben. Diese Untersuchungen wurden mit den Verbindungen 11a/11b, 12b, 6b, 13b und 14 sowie jeweils für jedes Zytostatikum getrennt durchgeführt. Es zeigte sich bei keiner der getesteten FFS (alleinige Zugabe) eine signifikante Zunahme der Zahl apoptotischer Zellen gegenüber der Kontrolle. Bei Inkubation der Zellen mit einer FFS und anschließender Zytostatikumgabe konnten unterschiedliche Effekte beobachtet werden .
Bei den alkin-substituierten FFS wurde bei Verwendung von Daunorubicin in Kombination mit 11a eine Zunahme von 60% und in Kombination mit 11b eine Abnahme der Anzahl apoptotischer Zellen gemessen. Bei Verwendung von Vinblastin als Zytostatikum nahm bei beiden FFS 11a und 11b die Zahl apoptotischer Zellen von 60% bzw. 160% zu.
(§2) Da die FFS 11a und 11b als einzige aller synthetisierten FFS eine signifikante Zunahme an apoptotischen Zellen bei Inkubation in Kombination mit einem Zytostatikum zeigten, wurde untersucht, ob dieser Effekt von der Konzentration der FFS abhängt. Daher wurde das oben beschriebene Experiment an Renca-Zellen unter den gleichen Bedingungen, aber mit jeweils verschiedenen Konzentrationen von 11a bzw. 11b im Bereich von 0 bis 1000 nM durchgeführt (Figur 3). […] Der prozentuale Anteil apoptotischer Zellen nahm mit steigender FFS Konzentration zu und mit fallender ab. Bei Inkubation mit einer 1000 nM-Lösung wurde eine 6.1 bzw. 5.2-fach höhere Anzahl apoptotischer Zellen im Vergleich zur Kontrolle mit Daunorubicin alleine festgestellt. […] Bei Inkubation der Zellen mit FFS ohne Zytostatikum wurden auch bei hoher FFS Konzentration keine signifikante Zu- bzw. Abnahme der Apoptoserate festgestellt. Die Apoptoserate wurde routinemäßig durch Messung YO-PRO-1 positiver Zellen^5,6 DNA-Leiter-Untersuchungen ("DNA-laddering") ermittelt.

Morris-Hepatom = assay: Apoptosis in Morris hepatoma cells: FFS alone or FFS pre-incubation followed by a cytostatic; assay type: cell-based, Ratte
From the text: as §1
Aufgrund dieser Effekte wurde mit den alkin-substituierten FFS 11a und 11b an einer weiteren Karzinomzelllinie (Morris-Hepatom; Tumorbank DKFZ Heidelberg, TZB No. 620143, MH TC 5123, histologischer Typ: Hepatom, Herkunft/Spezies: Ratte, Buffalo) die oben beschriebenen Untersuchungen durchgeführt. Die Konzentrationen der verwendeten FFS bzw. Zytostatika sind in Figur 4 angegeben. FFS alleine zeigten auch hier keine Effekte. Bei einer Kombination aus Daunorubicin mit der FFS 11a bzw. 11b stieg die Zahl apoptotischer Zellen um 130% bzw. 60% und bei einer Kombination FFS 11a bzw. 11b mit Vinblastin um 85% bzw. 50% .
as §2

[2] = 2 h FFS pre-incubation, then Daunorubicin, 24 h, RENCA
[3] = 2 h FFS pre-incubation, then Vinblastin, 24 h, RENCA

SMILES	Anzahl apoptotischer Zellen (change, in words) [1, 2]	Anzahl apoptotischer Zellen (change, in words) [1, 3]	Anstieg der Zahl apoptotischer Zellen (Morris-Hepatom; FFS combined with Daunorubicin) [%]	Anstieg der Zahl apoptotischer Zellen (Morris-Hepatom; FFS combined with Vinblastin) [%]	Zahl apoptotischer Zellen bei 50 nM relativ zu 100 nM [1]	höhere Anzahl apoptotischer Zellen im Vergleich zur Kontrolle mit Daunorubicin alleine [1] [fach]	Zunahme der Anzahl apoptotischer Zellen [1, 2] [%]	Zunahme der Zahl apoptotischer Zellen [1, 3] [%]	Konzentrationsabhängigkeit des prozentualen Anteils apoptotischer Zellen [1]
CCC(=O)CCc1ccc(CCCCCCCCCCC(=O)OC)o1 [13b, 11-[5(3-Oxo-pentyl)-furan-2-yl]-undecansäure-methylester]	leichter Rückgang	leichter Rückgang							
COC(=O)CCCCCCCCC#Cc1ccc(/C=C/C(C)=O)o1 [11a, 11-[5-(3-Oxo-1-butenyl)-furan-2-yl]-10-undecinsäuremethylester]			130	85	ca. halb so groß	6.1	60	60	deutliche Konzentrationsabhängigkeit
CCC(=O)/C=C/c1ccc(CCCCCCCCCCC(=O)OC)o1 [6b, 11-[5(3-Oxo-pentenyl)-furan-2-yl]-undecansäure-methylester]	leichter Rückgang	leichter Rückgang							
CCC(=O)/C=C/c1ccc(/C=C\CCCCCCCCC(=O)OC)o1 [12b]	leichter Rückgang	leichter Rückgang							
CCC(=O)/C=C/c1ccc(C#CCCCCCCCCC(=O)OC)o1 [11b, 11-[5-(3-Oxo-1-pentenyl)-furan-2-yl]-10-undecinsäure-methylester]	Abnahme		60	50	ca. halb so groß	5.2		160	deutliche Konzentrationsabhängigkeit
